Assay results from article PMC8950477 (Pharmaceuticals, 2022).
Like-named read-outs stand apart in the source and are kept apart here.

Tests used:
[1] = WSS-1 cell viability assay (resazurin); type: cell-based; conditions: human, WSS-1 cells (renal epithelium, adenovirus 5 transformed), concentration-response curve
Experimental: The assays were performed on two cell lines, as described below. […] WSS-1 (ATCC® CRL2029 ™): the cells used in this work were a healthy human cell line obtained from the renal epithelium of a fetus and transformed with adenovirus 5 DNA (ATCC: The Global Bioresource Center c). […] WSS-1 cells were cultured in high-glucose DMEM (Vitrocell) according to the provider’s recommendations (ATCC: The Global Bioresource Center c). The media were supplemented with 10% fetal bovine serum (FBS) and 50 μg/mL gentamicin. All cell lines were grown in a cell culture bottle with a 0.22 μm pore membrane filter on the lid, allowing the circulation of CO2. WSS-1 cells grew adherently, while cells of the K562 strain grew in suspension. All strains were maintained at 35 °C, at 5% CO2. In addition, all cell lines were routinely evaluated before freezing for storage in liquid nitrogen in the vapor phase for the detection of mycoplasma.
For the evaluation of the cytotoxic actions of the synthesized compounds, resazurin (Sigma-Aldrich) was used at a concentration of 0.1 mg/mL. The resazurin salt (Alamar Blue®) has a blue, nonfluorescent color and can be reduced to resorufin, which is pink and highly fluorescent. This process is an indicator of cell proliferation and fluorescent/colorimetric cytotoxicity with redox properties.
The first step of this assay consisted of plating the cells, with 5 × 10^4 cells per well. In this experiment, black plates with transparent bottoms and 96 wells (Greiner Bio-One) were used, and after plating, the cells were returned to the incubator for a period of approximately 20 h to allow growth and cell adhesion. The next step consisted of adding the obtained compounds, followed by incubation for a period of 46 h. Then, resazurin was added at a final concentration per well of 0.01 mg/mL, and immediately, the first fluorescence reading (λex = 560 nm; λex = 590 nm) (zero time) was performed using a FlexStation 3 microplate reader (Molecular Devices). After the first reading, the plate was returned to the incubator, and after two hours, the second reading was performed, completing 48 h of incubation with the compounds. As a negative control, cells treated with DMSO at a concentration of 0.5% instead of the obtained compounds were used. […] Preliminary screening of the compounds was carried out at fixed concentrations (1 and 10 μM) in triplicate. […] It should be noted that each experiment was carried out at least in duplicate. The fluorescence value at time zero (time immediately after the addition of resazurin) in each well was subtracted from the values obtained after two hours of incubation with resazurin. The average value with zero-time subtraction was used as 100% cell viability and was applied to calculate the percentage of cell viability in each well. […]

K562 cells = assay: K562 cell viability assay (resazurin); type: cell-based, human; conditions: for CC50: Homo sapiens, K562 cells, concentration-response curve
Experimental: The assays were performed on two cell lines, as described below. […] The K562 strain was grown in RPMI-1640 medium (R8758, Sigma-Aldrich, St. Louis, MO, USA) according to the provider’s recommendations and the literature [27, 28]. […] The media were supplemented with 10% fetal bovine serum (FBS) and 50 μg/mL gentamicin. All cell lines were grown in a cell culture bottle with a 0.22 μm pore membrane filter on the lid, allowing the circulation of CO2. […] All strains were maintained at 35 °C, at 5% CO2.
For the evaluation of the cytotoxic actions of the synthesized compounds, resazurin (Sigma-Aldrich) was used at a concentration of 0.1 mg/mL.
Standardization of this assay was not carried out in this project; thus, the following ideal values were used for the execution of the experiment: quantity of cells of 2 × 10^4 cell/mL, incubation time with the compounds of 48 h, incubation time with resazurin of one hour and DMSO used within the limit of 0.5%. As the cells grew in suspension, a long incubation period for adherence was not necessary. After plating, the cells were incubated for one hour, and then the prepared compounds were added and incubated for 47 h. After this period, resazurin was added at a final concentration per well of 0.01 mg/mL, and the first fluorescence reading (λex = 560 nm; λex = 590 nm) (zero time) was performed immediately using FlexStation 3 microplates (Molecular Devices). After the first reading, the plate was returned to the incubator, and after one hour, the second reading was performed, completing 48 h of incubation with the compounds. The compounds were solubilized in DMSO (Sigma-Aldrich) at concentrations ranging from 16.66 to 50 mM and maintained at −30 °C.
Analyses of the data obtained and graph construction were performed with the aid of GraphPad Prism 6 software (GraphPad Software Inc., San Diego, CA, USA).

[2] = Solubility observed during concentration-response curve; type: physicochemical; conditions: in the cell assay concentration-response curve
Experimental: Subsequently, a concentration-response curve was constructed for compounds 2g and 2h.

[3] = WSS-1 cells, unit inferred, read-out: CC50 WSS1 (Figure 5)
[4] = WSS-1 healthy cells, 48 h incubation, resazurin, read-out: CC50 WSS-1
[5] = 48 h incubation, resazurin, read-out: CC50 K562
[6] = unit inferred, read-out: CC50 K562 (Figure 5)

Row | Compound | melting point [°C] | CC50 (K562 cells; [5]) [nM] | further results
1 | CCOC(=O)c1cnc2ccccc2c1Nc1ccc(C)c(Nc2nccc(-c3cccnc3)n2)c1 [2e, Ethyl 4-((4-methyl-3-((4-(pyridin-3-yl)pyrimidin-2-yl)amino)phenyl)amino)quinoline-3-carboxylate] | 208 to 211 | – | –
2 | Cc1ccc(Nc2ccnc3ccccc23)cc1Nc1nccc(-c2cccnc2)n1 [2g, 4-Methyl-N^3-(4-(pyridin-3-yl)pyrimidin-2-yl)-N^1-(quinolin-4-yl)benzene-1,3-diamine] | 153 to 157 | 900 | CC50 at 48 h [1, 3]: 215 nM; CC50 at 48 h [1, 4]: 200 nM; CC50 (K562 cells; [6]): 874 nM; percentage of cell viability inhibition (K562 cells; K562 screening at 10 µM (Figure 4)): higher percentage of cell viability inhibition than IMT and BST
3 | Cc1ccc(Nc2ccc3cccc(Cl)c3n2)cc1Nc1nccc(-c2cccnc2)n1 [2h, N^1-(8-Chloroquinolin-2-yl)-4-methyl-N^3-(4-(pyridin-3-yl)pyrimidin-2-yl)benzene-1,3-diamine] | 237 to 239 | 6200 | solubility [2]: low solubility at concentrations above 30 μM; CC50 at 48 h [1, 3]: 4920 nM; CC50 at 48 h [1, 4]: 4900 nM; CC50 (K562 cells; [6]): 6250 nM
4 | Cc1ccc(NC(=O)c2ccc(CN3CCN(C)CC3)cc2)cc1Nc1nccc(-c2cccnc2)n1 [IMT, Imatinib, reference compound] | – | 80 | –

More lines, main results first:

Row | melting point [°C] | Compound | CC50 (K562 cells; [5]) [nM] | further results
5 | 187 to 188 | Cc1ccc(-n2cc(COc3ccnc4cc(Cl)ccc34)nn2)cc1Nc1nccc(-c2cccnc2)n1 [3a, N-(5-(4-(((7-Chloroquinolin-4-yl)oxy)methyl)-1H-1,2,3-triazol-1-yl)-2-methylphenyl)-4-(pyridin-3-yl)pyrimidin-2-amine] | – | –
6 | 107 to 108 | Cc1ccc(-n2cc(CCCOc3ccnc4cc(Cl)ccc34)nn2)cc1Nc1nccc(-c2cccnc2)n1 [3b, N-(5-(4-(3-((7-Chloroquinolin-4-yl)oxy)propyl)-1H-1,2,3-triazol-1-yl)-2-methylphenyl)-4-(pyridin-3-yl)pyrimidin-2-amine] | – | –
7 | 245 to 247 | Cc1ccc(NC(=O)Cn2cc(COc3ccnc4cc(Cl)ccc34)nn2)cc1Nc1nccc(-c2cccnc2)n1 [4a, 2-(4-(((7-Chloroquinolin-4-yl)oxy)methyl)-1H-1,2,3-triazol-1-yl)-N-(4-methyl-3-((4-(pyridin-3-yl)pyrimidin-2-yl)amino)phenyl)acetamide] | – | –
8 | 145 to 146 | Cc1ccc(NC(=O)Cn2cc(CCCOc3ccnc4cc(Cl)ccc34)nn2)cc1Nc1nccc(-c2cccnc2)n1 [4b, 2-(4-(3-((7-Chloroquinolin-4-yl)oxy)propyl)-1H-1,2,3-triazol-1-yl)-N-(4-methyl-3-((4-(pyridin-3-yl)pyrimidin-2-yl)amino)phenyl)acetamide] | – | –
